Broadly, the IC50 is the concentration needed to halve the response being measured.

Read-outs that look alike come from different tables or passages of the source.

In one test the target is hNav1.6 (Homo sapiens (Human), UniProt Q9UQD0). Nature of the test: Automated patch clamp (IonWorks Quattro) block of hNav1.6 channels in CHO cells. Format: cell-based. From the text: (§1) FIG. 1 depicts the voltage sequence used to measure inhibitory activity of compounds as described in Example 3. An automated patch clamp screening assay was used to measure the inhibitory effect (potency) of compounds in three conformational states of the sodium channel: (1) the tonic state (TP1); (2) the frequency-dependent (10 Hz) state (TP11) and (3) the inactivated state (TP12).
Sequence of hNav1.6 (Q9UQD0 whole entry): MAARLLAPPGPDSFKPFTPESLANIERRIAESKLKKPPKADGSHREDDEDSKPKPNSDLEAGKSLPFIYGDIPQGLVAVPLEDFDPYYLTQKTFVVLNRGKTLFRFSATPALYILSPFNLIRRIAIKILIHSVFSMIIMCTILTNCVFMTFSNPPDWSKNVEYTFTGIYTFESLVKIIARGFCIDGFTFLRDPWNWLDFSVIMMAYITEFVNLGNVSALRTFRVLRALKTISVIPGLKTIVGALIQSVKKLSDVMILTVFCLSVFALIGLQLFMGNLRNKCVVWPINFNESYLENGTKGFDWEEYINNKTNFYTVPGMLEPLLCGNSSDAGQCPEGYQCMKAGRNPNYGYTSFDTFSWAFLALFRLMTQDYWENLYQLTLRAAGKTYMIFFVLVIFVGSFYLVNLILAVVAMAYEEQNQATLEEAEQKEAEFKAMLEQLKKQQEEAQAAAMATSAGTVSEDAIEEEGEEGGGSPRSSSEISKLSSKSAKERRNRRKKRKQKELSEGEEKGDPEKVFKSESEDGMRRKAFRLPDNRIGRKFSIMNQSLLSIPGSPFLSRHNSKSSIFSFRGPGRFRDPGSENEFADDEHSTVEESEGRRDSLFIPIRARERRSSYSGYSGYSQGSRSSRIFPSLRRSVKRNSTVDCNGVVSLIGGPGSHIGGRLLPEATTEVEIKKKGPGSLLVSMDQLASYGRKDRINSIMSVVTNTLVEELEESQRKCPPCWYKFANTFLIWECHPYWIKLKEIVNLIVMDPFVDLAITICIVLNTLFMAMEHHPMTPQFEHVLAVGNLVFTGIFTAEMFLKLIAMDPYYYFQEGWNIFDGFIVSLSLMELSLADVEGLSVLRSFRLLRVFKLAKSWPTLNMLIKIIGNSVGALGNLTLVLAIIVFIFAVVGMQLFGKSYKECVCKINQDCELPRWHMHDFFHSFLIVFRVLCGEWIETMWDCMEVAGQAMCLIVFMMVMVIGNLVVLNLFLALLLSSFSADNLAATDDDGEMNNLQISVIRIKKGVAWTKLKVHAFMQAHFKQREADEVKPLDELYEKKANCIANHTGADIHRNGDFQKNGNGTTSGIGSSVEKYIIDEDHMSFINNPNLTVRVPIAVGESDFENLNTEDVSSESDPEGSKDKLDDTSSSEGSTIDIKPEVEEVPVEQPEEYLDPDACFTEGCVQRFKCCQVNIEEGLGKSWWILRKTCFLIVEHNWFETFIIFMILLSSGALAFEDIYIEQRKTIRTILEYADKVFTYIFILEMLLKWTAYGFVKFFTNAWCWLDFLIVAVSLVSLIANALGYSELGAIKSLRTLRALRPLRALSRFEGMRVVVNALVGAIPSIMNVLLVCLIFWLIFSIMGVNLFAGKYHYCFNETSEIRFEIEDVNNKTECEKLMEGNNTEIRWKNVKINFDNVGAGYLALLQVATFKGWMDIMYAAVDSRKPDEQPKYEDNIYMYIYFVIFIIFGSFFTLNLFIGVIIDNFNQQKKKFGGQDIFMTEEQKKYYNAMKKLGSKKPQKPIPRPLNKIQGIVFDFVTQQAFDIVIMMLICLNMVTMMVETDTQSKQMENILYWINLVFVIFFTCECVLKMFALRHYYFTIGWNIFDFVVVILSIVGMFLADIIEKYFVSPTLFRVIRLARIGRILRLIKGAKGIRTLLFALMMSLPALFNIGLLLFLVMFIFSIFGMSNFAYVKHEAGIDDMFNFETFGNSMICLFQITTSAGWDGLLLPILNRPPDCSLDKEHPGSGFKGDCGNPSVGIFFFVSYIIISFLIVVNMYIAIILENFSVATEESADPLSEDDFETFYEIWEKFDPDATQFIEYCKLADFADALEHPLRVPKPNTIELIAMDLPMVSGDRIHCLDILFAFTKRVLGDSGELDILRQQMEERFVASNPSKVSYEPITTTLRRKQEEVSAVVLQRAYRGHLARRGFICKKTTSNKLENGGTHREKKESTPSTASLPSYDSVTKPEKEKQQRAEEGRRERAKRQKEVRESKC
(§2) Test Protocol for Determining the Potency of Compounds on Nav1.2 and Nav1.6 Subtypes of Voltage-Gated Sodium Ion Channels Expressed in Mammalian Cells
(§3) Cell culture procedures: Chinese hamster ovary (CHO) cells were stably transfected with the cDNA sequence of either the human SCN2A or SCN8A genes to create hNav1.2 or hNav1.6 cells respectively. The cell lines were cultured in Ham's F-12 medium supplemented with 10% fetal bovine serum and antibiotics in a tissue incubator at 37° C. under a humidified air/CO2 mixture (95/5 v/v). On the day of the experiment, cells were washed twice with Hank's balanced salt solution, treated with trypsin, and resuspended in fresh culture media at a density of 4−6×10^6 cells in 20 ml. Immediately before placing in the IonWorks Quattro instrument, cells were washed in Hank's balanced salt solution to remove culture medium and re-suspended in 3 ml of Hank's balanced salt solution.
(§4) Automated patch clamp recordings of cells using the IonWorks Quattro Instrument: The assay used a 384 microwell plate, which enabled 20 compounds to be studied at four different concentrations in quadruplicate as well as allowing a vehicle control group and a positive control group using mexiletine at 8 different concentrations. Cells were added to the wells of the Population Patch Clamp planar electrode using a 48-channel pipettor in a volume of 6 μL, per well. After 5 minutes incubation at ambient temperature with compounds or vehicle, membrane currents were recorded using the patch clamp amplifier. The pulse pattern was repeated twice, before and after compound addition and peak current amplitudes were measured at three test pulses, TP1, TP11 and TP12 to measure Tonic Block, 10 Hz Frequency-dependent Block and Inactivation State Block, respectively.
(§5) Data analysis: Data acquisition and analyses were carried out using the IonWorks Quattro system operation software which uses an algorithm to correct data for leak currents. Concentration-response curves were fitted by non-linear least squares regression allowing calculation of an IC50 value (μM), being the concentration of the compound producing half-maximal inhibition.
On the technique in general: The patch-clamp technique gives a direct electrical read-out from membranes.

The target in a further test is hNav1.2 (Homo sapiens (Human), UniProt Q99250). The test can be described thus: Automated patch clamp (IonWorks Quattro) block of hNav1.2 channels in CHO cells. Type of test: cell-based.
Sequence of hNav1.2 (Q99250 whole entry): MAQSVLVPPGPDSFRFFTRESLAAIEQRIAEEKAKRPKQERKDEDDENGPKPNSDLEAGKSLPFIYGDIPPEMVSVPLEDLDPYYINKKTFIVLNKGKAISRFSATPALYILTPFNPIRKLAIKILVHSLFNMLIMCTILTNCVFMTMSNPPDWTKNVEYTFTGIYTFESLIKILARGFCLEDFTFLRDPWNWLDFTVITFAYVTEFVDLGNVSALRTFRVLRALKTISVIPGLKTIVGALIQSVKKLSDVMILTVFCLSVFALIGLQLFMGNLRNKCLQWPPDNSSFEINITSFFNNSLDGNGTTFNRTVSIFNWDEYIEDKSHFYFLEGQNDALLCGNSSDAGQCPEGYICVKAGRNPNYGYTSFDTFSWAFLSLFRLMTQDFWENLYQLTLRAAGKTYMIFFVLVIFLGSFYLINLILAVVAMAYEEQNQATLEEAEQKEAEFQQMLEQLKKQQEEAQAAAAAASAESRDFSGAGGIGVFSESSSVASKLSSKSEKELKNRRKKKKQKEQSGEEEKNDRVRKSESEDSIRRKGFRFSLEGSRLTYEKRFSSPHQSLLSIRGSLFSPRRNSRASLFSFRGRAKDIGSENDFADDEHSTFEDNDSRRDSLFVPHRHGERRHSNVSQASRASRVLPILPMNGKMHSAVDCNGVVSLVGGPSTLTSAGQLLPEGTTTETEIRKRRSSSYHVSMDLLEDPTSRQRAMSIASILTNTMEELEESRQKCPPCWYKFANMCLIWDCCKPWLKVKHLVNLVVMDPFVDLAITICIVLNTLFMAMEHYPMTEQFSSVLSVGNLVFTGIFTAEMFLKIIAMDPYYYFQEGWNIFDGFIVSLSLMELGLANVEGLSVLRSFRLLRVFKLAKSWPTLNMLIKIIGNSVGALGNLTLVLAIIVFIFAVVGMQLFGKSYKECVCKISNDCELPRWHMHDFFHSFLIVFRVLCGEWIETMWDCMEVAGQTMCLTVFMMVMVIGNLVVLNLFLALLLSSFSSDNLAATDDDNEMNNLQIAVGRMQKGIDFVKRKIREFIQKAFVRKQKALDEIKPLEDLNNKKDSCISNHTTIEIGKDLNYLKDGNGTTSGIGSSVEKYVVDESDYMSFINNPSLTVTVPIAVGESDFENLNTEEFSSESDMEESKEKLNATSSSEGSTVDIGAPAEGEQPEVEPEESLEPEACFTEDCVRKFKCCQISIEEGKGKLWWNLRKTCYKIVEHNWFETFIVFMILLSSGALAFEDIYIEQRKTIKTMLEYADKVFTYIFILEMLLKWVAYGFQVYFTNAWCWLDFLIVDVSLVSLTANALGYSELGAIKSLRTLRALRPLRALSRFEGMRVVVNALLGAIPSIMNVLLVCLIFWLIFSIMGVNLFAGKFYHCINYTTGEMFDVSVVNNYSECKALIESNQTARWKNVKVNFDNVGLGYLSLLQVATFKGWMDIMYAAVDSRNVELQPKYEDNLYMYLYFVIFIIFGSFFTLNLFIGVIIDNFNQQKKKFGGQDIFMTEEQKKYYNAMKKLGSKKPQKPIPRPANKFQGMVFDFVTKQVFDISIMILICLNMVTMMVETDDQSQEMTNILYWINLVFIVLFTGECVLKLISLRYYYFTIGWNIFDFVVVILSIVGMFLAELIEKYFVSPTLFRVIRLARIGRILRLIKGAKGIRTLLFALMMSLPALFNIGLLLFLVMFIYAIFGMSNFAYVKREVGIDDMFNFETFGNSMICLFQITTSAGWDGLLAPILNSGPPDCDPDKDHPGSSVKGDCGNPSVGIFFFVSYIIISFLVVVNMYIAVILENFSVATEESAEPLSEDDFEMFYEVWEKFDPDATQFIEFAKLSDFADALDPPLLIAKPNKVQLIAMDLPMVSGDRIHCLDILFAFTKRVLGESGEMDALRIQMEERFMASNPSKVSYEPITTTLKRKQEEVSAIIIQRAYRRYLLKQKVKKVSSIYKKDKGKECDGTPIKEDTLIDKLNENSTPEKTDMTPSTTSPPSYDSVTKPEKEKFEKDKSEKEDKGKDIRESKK
Description: as §1, §2, §3, §4, §5

Setting [1] is: 10 Hz frequency-dependent block (TP11), read-out: IC50 Nav1.6 10 Hz block.
The mark [2] stands for this setting: Inactivated state block (TP12), read-out: IC50 Nav1.6 Inactivated state block.
Setting [3] is: Tonic block (TP1), read-out: IC50 Nav1.6 Tonic block.
Where [4] appears, read: 10 Hz frequency-dependent block (TP11), read-out: IC50 Nav1.2 10 Hz block.
Where [5] appears, read: Inactivated state block (TP12), read-out: IC50 Nav1.2 Inactivated state block.
Setting [6] is: Tonic block (TP1), read-out: IC50 Nav1.2 Tonic block.

In the case of “3-(2,6-Dimethylphenoxy)-N-(3-(trifluoromethyl)benzyl)propan-1-amine [Compound 533]”, the half-maximal inhibitory concentration (IC50) at hNav1.6 (setting [1]) is 4.3 µM; on hNav1.6 (setting [2]), 2.3 µM; on hNav1.6 (setting [3]), 7.1 µM; on hNav1.2 (setting [4]), 6.1 µM; at hNav1.2 (setting [5]), 2 µM; on hNav1.2 (setting [6]) it was approximately 10.1 µM.
Regarding “3-((3-(2,6-Dimethylphenoxy)propylamino)methyl)benzonitrile [Compound 524]”, the concentration for half-maximal inhibition (IC50) on hNav1.6 (setting [1]) was 3.9 µM; on hNav1.6 (setting [2]), more than 10 µM; on hNav1.6 (setting [3]), 7.8 µM; on hNav1.2 (setting [4]), 9.6 µM; at hNav1.2 (setting [5]), more than 10 µM; at hNav1.2 (setting [6]), more than 10 µM.
For `Cc1cccc(C)c1OCCCNCc1cc(Cl)c(O)c(Cl)c1` [Compound 504, 2,6-Dichloro-4-((3-(2,6-dimethylphenoxy)propylamino)methyl)phenol], the half-inhibitory concentration (IC50) on hNav1.6 (setting [1]) was more than 10 µM; at hNav1.6 (setting [2]), more than 10 µM; on hNav1.6 (setting [3]), more than 10 µM; at hNav1.2 (setting [4]) it was more than 10 µM; on hNav1.2 (setting [5]), 4.4 µM; at hNav1.2 (setting [6]) it was more than 10 µM.
For `Cc1cccc(C)c1OCCCNCc1ccccc1` [Compound 518, N-Benzyl-3-(2,6-dimethylphenoxy)propan-1-amine], the IC50 worked out at 2.9 µM at hNav1.6 (setting [1]); 2 µM on hNav1.6 (setting [2]); 5.2 µM at hNav1.6 (setting [3]); 1.8 µM at hNav1.2 (setting [4]); 0.5 µM at hNav1.2 (setting [5]); 3.3 µM at hNav1.2 (setting [6]).
Take `Cc1cccc(C)c1OCCCNCc1ccc(C#N)cc1` [Compound 519, 4-((3-(2,6-Dimethylphenoxy)propylamino)methyl)benzonitrile]: the IC50 is 3.4 µM on hNav1.6 (setting [1]); 1.8 µM at hNav1.6 (setting [2]); 5.6 µM at hNav1.6 (setting [3]); 8.3 µM on hNav1.2 (setting [4]); 2.1 µM at hNav1.2 (setting [5]); more than 10 µM on hNav1.2 (setting [6]).
As for `COc1ccc(CNCCCOc2c(C)cccc2C)cc1` [Compound 520, 3-(2,6-Dimethylphenoxy)-N-(4-methoxybenzyl)propan-1-amine], the IC50 on hNav1.6 (setting [1]) worked out at 2.6 µM; on hNav1.6 (setting [2]), 1.5 µM; at hNav1.6 (setting [3]) it was 4.9 µM; on hNav1.2 (setting [4]) it was 2.1 µM; at hNav1.2 (setting [5]), 1 µM; at hNav1.2 (setting [6]) it was 6.3 µM.
As to `Cc1cccc(C)c1OCCCNCc1ccc(F)cc1` [Compound 521, 3-(2,6-Dimethylphenoxy)-N-(4-fluorobenzyl)propan-1-amine], the IC50 was 2.2 µM at hNav1.6 (setting [1]); 1.4 µM at hNav1.6 (setting [2]); 4.5 µM on hNav1.6 (setting [3]); 8.4 µM on hNav1.2 (setting [4]); 2.8 µM on hNav1.2 (setting [5]); approximately 10.2 µM on hNav1.2 (setting [6]).
On to `Cc1cccc(C)c1OCCCNCc1ccc(-c2ccccc2)cc1` [Compound 522, N-(Biphenyl-4-ylmethyl)-3-(2,6-dimethylphenoxy)propan-1-amine], for which the IC50 on hNav1.6 (setting [1]), on hNav1.6 (setting [2]), on hNav1.6 (setting [3]), on hNav1.2 (setting [4]), at hNav1.2 (setting [5]) and at hNav1.2 (setting [6]) was more than 1000 µM in each case.
For `Cc1cccc(C)c1OCCCNCc1ccccn1` [Compound 523, 3-(2,6-Dimethylphenoxy)-N-(pyridin-2-ylmethyl)propan-1-amine], the IC50 at hNav1.6 (setting [1]) was 7.6 µM; at hNav1.6 (setting [2]), 2 µM; at hNav1.6 (setting [3]), more than 10 µM; on hNav1.2 (setting [4]), approximately 10 µM; on hNav1.2 (setting [5]) it was 4.2 µM; on hNav1.2 (setting [6]) it was more than 10 µM.
`COc1cccc(CNCCCOc2c(C)cccc2C)c1` [Compound 525, 3-(2,6-Dimethylphenoxy)-N-(3-methoxybenzyl)propan-1-amine]: the IC50 at hNav1.6 (setting [1]) came out at 3.2 µM; at hNav1.6 (setting [2]), 1.8 µM; at hNav1.6 (setting [3]), 7.9 µM; at hNav1.2 (setting [4]), 1.5 µM; on hNav1.2 (setting [5]), 0.4 µM; on hNav1.2 (setting [6]), 4.8 µM.
For the molecule `Cc1cccc(C)c1OCCCNCc1ccc(C(F)(F)F)cc1` [Compound 526], the IC50 at hNav1.6 (setting [1]) was 4.7 µM; on hNav1.6 (setting [2]), 2.3 µM; on hNav1.6 (setting [3]), 6.9 µM; at hNav1.2 (setting [4]), 9.5 µM; on hNav1.2 (setting [5]), 3.5 µM; at hNav1.2 (setting [6]), more than 10 µM.
Consider `Cc1cccc(C)c1OCCCNCc1cccnc1` [Compound 528, 3-(2,6-Dimethylphenoxy)-N-(pyridin-3-ylmethyl)propan-1-amine], for which the IC50 was 12.4 µM at hNav1.6 (setting [1]); 4.7 µM at hNav1.6 (setting [2]); 31.7 µM on hNav1.6 (setting [3]); 13.1 µM on hNav1.2 (setting [4]); 4.8 µM at hNav1.2 (setting [5]); 34.4 µM on hNav1.2 (setting [6]).
Turning to `COc1ccccc1CNCCCOc1c(C)cccc1C` [Compound 530, 3-(2,6-Dimethylphenoxy)-N-(2-methoxybenzyl)propan-1-amine], the IC50 at hNav1.6 (setting [1]) worked out at 1.7 µM; at hNav1.6 (setting [2]), 0.8 µM; on hNav1.6 (setting [3]) it was 2.9 µM; on hNav1.2 (setting [4]) it was 2.9 µM; on hNav1.2 (setting [5]), 1.1 µM; at hNav1.2 (setting [6]), 7.8 µM.
As to `Cc1cccc(C)c1OCCCNCc1ccc(OC(F)(F)F)cc1` [Compound 531, 3-(2,6-Dimethylphenoxy)-N-(4-(trifluoromethoxy)benzyl)propan-1-amine], the IC50 on hNav1.6 (setting [1]) is 56.3 µM; on hNav1.6 (setting [2]), 40.9 µM; on hNav1.6 (setting [3]), 138 µM; at hNav1.2 (setting [4]) it was 3.6 µM; on hNav1.2 (setting [5]), 1.4 µM; on hNav1.2 (setting [6]), 12.5 µM.
In the case of `Cc1cccc(C)c1OCCCNCc1ccc(S(N)(=O)=O)cc1` [Compound 532, 4-((3-(2,6-Dimethylphenoxy)propylamino)methyl)benzenesulfonamide], the IC50 at hNav1.6 (setting [1]) is more than 10 µM; on hNav1.6 (setting [2]), 8.5 µM; on hNav1.6 (setting [3]) it was more than 10 µM; on hNav1.2 (setting [4]) it was more than 10 µM; at hNav1.2 (setting [5]), 6.1 µM; at hNav1.2 (setting [6]), more than 10 µM.
As for `Cc1cccc(C)c1OCCCNCc1ccccc1C(F)(F)F` [Compound 534, 3-(2,6-Dimethylphenoxy)-N-(2-(trifluoromethyl)benzyl)propan-1-amine], the half-maximal inhibitory concentration (IC50) on hNav1.6 (setting [1]) is 4.1 µM; at hNav1.6 (setting [2]), 2.3 µM; at hNav1.6 (setting [3]), 8.1 µM; on hNav1.2 (setting [4]) it was 7.1 µM; on hNav1.2 (setting [5]), 2.1 µM; on hNav1.2 (setting [6]), more than 10 µM.
`Cc1cccc(C)c1OCCCNCc1cccc(-c2ccccc2)c1` [Compound 535, N-(Biphenyl-3-ylmethyl)-3-(2,6-dimethylphenoxy)propan-1-amine]: the 50% inhibitory concentration (IC50) is more than 1000 µM at hNav1.6 (setting [1]); more than 1000 µM at hNav1.6 (setting [2]); more than 1000 µM at hNav1.6 (setting [3]); 20.7 µM on hNav1.2 (setting [4]); 7 µM at hNav1.2 (setting [5]); 66.5 µM at hNav1.2 (setting [6]).
For `Cc1cccc(C)c1OCCCNCc1ccccc1-c1ccccc1` [Compound 536, N-(Biphenyl-2-ylmethyl)-3-(2,6-dimethylphenoxy)propan-1-amine], the half-maximal inhibitory concentration (IC50) is 3.7 µM at hNav1.6 (setting [1]); 1.3 µM at hNav1.6 (setting [2]); 21.4 µM on hNav1.6 (setting [3]); 1.7 µM at hNav1.2 (setting [4]); 0.4 µM on hNav1.2 (setting [5]); more than 30 µM at hNav1.2 (setting [6]).
Turning to `Cc1cccc(C)c1OCCCNCc1noc(C(C)C)n1` [Compound 538, 3-(2,6-Dimethylphenoxy)-N-((5-isopropyl-1,2,4-oxadiazol-3-yl)methyl)propan-1-amine], the IC50 was more than 10 µM on hNav1.6 (setting [1]); more than 10 µM on hNav1.6 (setting [2]); more than 10 µM on hNav1.6 (setting [3]); more than 10 µM at hNav1.2 (setting [4]); approximately 10.2 µM at hNav1.2 (setting [5]); more than 10 µM at hNav1.2 (setting [6]).
`Cc1cccc(C)c1OCCCNCc1nn(Cc2ccccc2)c2ccccc12` [Compound 540, N-((1-Benzyl-1H-indazol-3-yl)methyl)-3-(2,6-dimethylphenoxy)propan-1-amine]: the half-maximal inhibitory concentration (IC50) was determined as 142 µM at hNav1.6 (setting [1]); 80.5 µM at hNav1.6 (setting [2]); 287 µM at hNav1.6 (setting [3]); 2.3 µM on hNav1.2 (setting [4]); 1.2 µM on hNav1.2 (setting [5]); 23.5 µM at hNav1.2 (setting [6]).
On to `CC(=O)Nc1ccc(CNCCCOc2c(C)cccc2C)cc1` [Compound 542, N-(4-((3-(2,6-Dimethylphenoxy)propylamino)methyl)phenyl)acetamide], for which the 50% inhibitory concentration (IC50) on hNav1.6 (setting [1]) was more than 10 µM; at hNav1.6 (setting [2]), 7.1 µM; on hNav1.6 (setting [3]), more than 10 µM; on hNav1.2 (setting [4]) it was more than 10 µM; at hNav1.2 (setting [5]), 5 µM; on hNav1.2 (setting [6]) it was more than 10 µM.

The values are drawn from patent US10577308B2, “Sodium channel modulators” (The Florey Institute of Neuroscience and Mental Health, priority 2015, dated 2020).
